Laboratory results published in patent US11911346B2, “Orally administrated therapeutic for treating mild cognitive impairment (MCI) and improving human cognitive function” (BrainCare LLC, priority 2021, dated 2024).

System: cognitive function of participants with Subjective Cognitive Decline
Experiment: Cognitive Failures Questionnaire (CFQ), 8-week randomized study of one or two BCP capsules daily
Type: in vivo, human
Conditions: two capsules daily (180 mg BCP); for CFQ score: Do you bump into people? / CFQ score: Do you confuse left and right when giving people directions? / CFQ score: Do you daydream when you ought to be listening to something? / CFQ score: Do you fail to hear people speaking to you when you are doing something? / CFQ score: Do you fail to listen to people's names when you are meeting them for the first time? / CFQ score: Do you fail to notice signposts on the road? / CFQ score: Do you fail to see what you want in a supermarket (although it's there)? / CFQ score: Do you find that you drop things? / CFQ score: Do you find that you forget appointments? / CFQ score: Do you find you accidentally misplace things like placing the fruit in the cupboard and the bowl in the refrigerator? / CFQ score: Do you find you can't quite remember something although it's “on the tip of your tongue”? / CFQ score: Do you find you can't think of anything to say? / CFQ score: Do you find you forget people's names? / CFQ score: Do you find you forget what you came to the store to buy? / CFQ score: Do you find you forget whether you've turned off a light or locked the door? / CFQ score: Do you find you forget which way to turn on a road you know well but rarely use? / CFQ score: Do you find you forget why you went from one place of the house to the other? / CFQ score: Do you find yourself suddenly wondering if you used a word correctly? / CFQ score: Do you forget where you put something like a newspaper or a book? / CFQ score: Do you have trouble making up your mind? / CFQ score: Do you lose track of paying bills? / CFQ score: Do you lose your temper and regret it? / CFQ score: Do you read something and find you haven't been thinking about it and must read it again? / CFQ score: Do you say something and realize afterwards that it might be taken as an insult? / CFQ score: Do you start doing one thing at home and get distracted and do something else (unintentionally)? / Distractibility summed sub-score of CFQ / False triggering summed sub-score of CFQ / Forgetfulness summed sub-score of CFQ / Total CFQ summed sub-score: lower is better
[1] = week 4, listed as beta-caryophyllene
[2] = week 8, listed as beta-caryophyllene

Structure (SMILES): C=C1CC/C=C(\C)CC[C@@H]2[C@@H]1CC2(C)C [BCP, beta-caryophyllene]
- CFQ % better vs. baseline: Do you find yourself suddenly wondering if you used a word correctly? (week 4): 29% better
- CFQ % better vs. baseline: Do you forget where you put something like a newspaper or a book? (week 4): 19%
- CFQ % better vs. baseline: Do you have trouble making up your mind? (week 4): 21% better
- CFQ % better vs. baseline: Do you lose track of paying bills? (week 4): 10% better
- CFQ % better vs. baseline: Do you lose your temper and regret it? (week 4): 26% better
- CFQ % better vs. baseline: Do you read something and find you haven't been thinking about it and must read it again? (week 4): 39%
- CFQ % better vs. baseline: Do you start doing one thing at home and get distracted and do something else (unintentionally)? (week 4): 30%
- CFQ change vs. baseline: Do you say something and realize afterwards that it might be taken as an insult? (week 4): No change
- Distractibility summed sub-score of CFQ, % better vs. baseline (week 4): 20%
- False triggering summed sub-score of CFQ, % better vs. baseline (week 4): 33%
- Forgetfulness summed sub-score of CFQ, % better vs. baseline (week 4): 27%
- Total CFQ summed sub-score, % better vs. baseline (week 4): 25%
- CFQ % better vs. baseline: Do you daydream when you ought to be listening to something? [1]: 28% better
- CFQ % better vs. baseline: Do you find you can't quite remember something although it's “on the tip of your tongue”? [1]: 20% better
- CFQ % better vs. baseline: Do you find you forget whether you've turned off a light or locked the door? [1]: 45% better
- CFQ % better vs. baseline: Do you find you forget why you went from one place of the house to the other? [1]: 39% better
- CFQ % better vs. baseline: Do you forget where you put something like a newspaper or a book? [1]: 19% better
- CFQ % better vs. baseline: Do you read something and find you haven't been thinking about it and must read it again? [1]: 39% better
- CFQ % better vs. baseline: Do you start doing one thing at home and get distracted and do something else (unintentionally)? [1]: 30% better
- Distractibility summed sub-score of CFQ, % better vs. baseline [1]: 20% better
- False triggering summed sub-score of CFQ, % better vs. baseline [1]: 33% better
- Forgetfulness summed sub-score of CFQ, % better vs. baseline [1]: 27% better
- Total CFQ summed sub-score, % better vs. baseline [1]: 25% better
- CFQ score: Do you bump into people? (week 4): 0.6 ± 0.8
- CFQ score: Do you confuse left and right when giving people directions? (week 4): 0.7 ± 0.8
- CFQ score: Do you daydream when you ought to be listening to something? (week 4): 1.3 ± 0.9
- CFQ score: Do you fail to hear people speaking to you when you are doing something? (week 4): 1.5 ± 1.1
- CFQ score: Do you fail to listen to people's names when you are meeting them for the first time? (week 4): 1.8 ± 1.2
- CFQ score: Do you fail to notice signposts on the road? (week 4): 0.7 ± 0.7
- CFQ score: Do you fail to see what you want in a supermarket (although it's there)? (week 4): 1.1 ± 1.0
- CFQ score: Do you find that you drop things? (week 4): 1.1 ± 0.7
- CFQ score: Do you find that you forget appointments? (week 4): 0.7 ± 0.8
- CFQ score: Do you find you accidentally misplace things like placing the fruit in the cupboard and the bowl in the refrigerator? (week 4): 0.7 ± 0.9
- CFQ score: Do you find you can't quite remember something although it's “on the tip of your tongue”? (week 4): 2.0 ± 1.0^
- CFQ score: Do you find you can't think of anything to say? (week 4): 0.8 ± 0.8
- CFQ score: Do you find you forget people's names? (week 4): 2.0 ± 0.9
- CFQ score: Do you find you forget what you came to the store to buy? (week 4): 1.0 ± 0.9
- CFQ score: Do you find you forget whether you've turned off a light or locked the door? (week 4): 1.1 ± 0.9
- CFQ score: Do you find you forget which way to turn on a road you know well but rarely use? (week 4): 0.6 ± 0.8
- CFQ score: Do you find you forget why you went from one place of the house to the other? (week 4): 1.4 ± 0.7^
- CFQ score: Do you find yourself suddenly wondering if you used a word correctly? (week 4): 1.0 ± 1.1
- CFQ score: Do you forget where you put something like a newspaper or a book? (week 4): 1.7 ± 0.9^
- CFQ score: Do you have trouble making up your mind? (week 4): 1.5 ± 1.1
- CFQ score: Do you lose track of paying bills? (week 4): 0.9 ± 1.0
- CFQ score: Do you lose your temper and regret it? (week 4): 1.1 ± 0.8
- CFQ score: Do you read something and find you haven't been thinking about it and must read it again? (week 4): 1.5 ± 0.9
- CFQ score: Do you say something and realize afterwards that it might be taken as an insult? (week 4): 1.4 ± 0.9
- CFQ score: Do you start doing one thing at home and get distracted and do something else (unintentionally)? (week 4): 1.9 ± 0.8
- Distractibility summed sub-score of CFQ (week 4): 10 ± 5
- False triggering summed sub-score of CFQ (week 4): 7 ± 4^
- Forgetfulness summed sub-score of CFQ (week 4): 12 ± 5^
- Total CFQ summed sub-score (week 4): 29 ± 14
- CFQ % better vs. baseline: Do you bump into people? (week 8): 29% better
- CFQ % better vs. baseline: Do you confuse left and right when giving people directions? (week 8): 22% better
- CFQ % better vs. baseline: Do you daydream when you ought to be listening to something? (week 8): 33%
- CFQ % better vs. baseline: Do you fail to hear people speaking to you when you are doing something? (week 8): 23% better
- CFQ % better vs. baseline: Do you fail to listen to people's names when you are meeting them for the first time? (week 8): 17% better
- CFQ % better vs. baseline: Do you fail to notice signposts on the road? (week 8): 20% better
- CFQ % better vs. baseline: Do you fail to see what you want in a supermarket (although it's there)? (week 8): 23% better
- CFQ % better vs. baseline: Do you find that you drop things? (week 8): 33% better
- CFQ % better vs. baseline: Do you find that you forget appointments? (week 8): 50% better
- CFQ % better vs. baseline: Do you find you accidentally misplace things like placing the fruit in the cupboard and the bowl in the refrigerator? (week 8): 63%
- CFQ % better vs. baseline: Do you find you can't quite remember something although it's “on the tip of your tongue”? (week 8): 12% better
- CFQ % better vs. baseline: Do you find you can't think of anything to say? (week 8): 27% better
- CFQ % better vs. baseline: Do you find you forget people's names? (week 8): 20% better
- CFQ % better vs. baseline: Do you find you forget what you came to the store to buy? (week 8): 27% better
- CFQ % better vs. baseline: Do you find you forget whether you've turned off a light or locked the door? (week 8): 40%
- CFQ % better vs. baseline: Do you find you forget which way to turn on a road you know well but rarely use? (week 8): 44% better
- CFQ % better vs. baseline: Do you find you forget why you went from one place of the house to the other? (week 8): 39%
- CFQ % better vs. baseline: Do you find yourself suddenly wondering if you used a word correctly? (week 8): 43% better
- CFQ % better vs. baseline: Do you forget where you put something like a newspaper or a book? (week 8): 29%
- CFQ % better vs. baseline: Do you have trouble making up your mind? (week 8): 26% better
- CFQ % better vs. baseline: Do you lose track of paying bills? (week 8): 30% better
- CFQ % better vs. baseline: Do you lose your temper and regret it? (week 8): 33% better
- CFQ % better vs. baseline: Do you read something and find you haven't been thinking about it and must read it again? (week 8): 39%
- CFQ % better vs. baseline: Do you say something and realize afterwards that it might be taken as an insult? (week 8): 14% better
- CFQ % better vs. baseline: Do you start doing one thing at home and get distracted and do something else (unintentionally)? (week 8): 30%
- Distractibility summed sub-score of CFQ, % better vs. baseline (week 8): 29%
- False triggering summed sub-score of CFQ, % better vs. baseline (week 8): 36%
- Forgetfulness summed sub-score of CFQ, % better vs. baseline (week 8): 27%
- Total CFQ summed sub-score, % better vs. baseline (week 8): 30%
- CFQ % better vs. baseline: Do you daydream when you ought to be listening to something? [2]: 33% better
- CFQ % better vs. baseline: Do you find you accidentally misplace things like placing the fruit in the cupboard and the bowl in the refrigerator? [2]: 63% better
- CFQ % better vs. baseline: Do you find you forget whether you've turned off a light or locked the door? [2]: 40% better
- CFQ % better vs. baseline: Do you find you forget why you went from one place of the house to the other? [2]: 39% better
- CFQ % better vs. baseline: Do you forget where you put something like a newspaper or a book? [2]: 29% better
- CFQ % better vs. baseline: Do you read something and find you haven't been thinking about it and must read it again? [2]: 39% better
- CFQ % better vs. baseline: Do you start doing one thing at home and get distracted and do something else (unintentionally)? [2]: 30% better
- Distractibility summed sub-score of CFQ, % better vs. baseline [2]: 29% better
- False triggering summed sub-score of CFQ, % better vs. baseline [2]: 36% better
- Forgetfulness summed sub-score of CFQ, % better vs. baseline [2]: 27% better
- Total CFQ summed sub-score, % better vs. baseline [2]: 30% better
- CFQ score: Do you bump into people? (week 8): 0.5 ± 0.6
- CFQ score: Do you confuse left and right when giving people directions? (week 8): 0.7 ± 0.8
- CFQ score: Do you daydream when you ought to be listening to something? (week 8): 1.2 ± 0.9
- CFQ score: Do you fail to hear people speaking to you when you are doing something? (week 8): 1.3 ± 1.1
- CFQ score: Do you fail to listen to people's names when you are meeting them for the first time? (week 8): 1.9 ± 1.1
- CFQ score: Do you fail to notice signposts on the road? (week 8): 0.8 ± 0.7
- CFQ score: Do you fail to see what you want in a supermarket (although it's there)? (week 8): 1.0 ± 0.8
- CFQ score: Do you find that you drop things? (week 8): 1.0 ± 0.7
- CFQ score: Do you find that you forget appointments? (week 8): 0.5 ± 0.5
- CFQ score: Do you find you accidentally misplace things like placing the fruit in the cupboard and the bowl in the refrigerator? (week 8): 0.3 ± 0.5
- CFQ score: Do you find you can't quite remember something although it's “on the tip of your tongue”? (week 8): 2.2 ± 0.8
- CFQ score: Do you find you can't think of anything to say? (week 8): 0.8 ± 0.7
- CFQ score: Do you find you forget people's names? (week 8): 2.0 ± 1.0
- CFQ score: Do you find you forget what you came to the store to buy? (week 8): 1.1 ± 0.9
- CFQ score: Do you find you forget whether you've turned off a light or locked the door? (week 8): 1.2 ± 0.7
- CFQ score: Do you find you forget which way to turn on a road you know well but rarely use? (week 8): 0.5 ± 0.6
- CFQ score: Do you find you forget why you went from one place of the house to the other? (week 8): 1.4 ± 0.8^
- CFQ score: Do you find yourself suddenly wondering if you used a word correctly? (week 8): 0.8 ± 0.9
- CFQ score: Do you forget where you put something like a newspaper or a book? (week 8): 1.5 ± 0.9^
- CFQ score: Do you have trouble making up your mind? (week 8): 1.4 ± 0.9
- CFQ score: Do you lose track of paying bills? (week 8): 0.7 ± 0.9
- CFQ score: Do you lose your temper and regret it? (week 8): 1.0 ± 0.7
- CFQ score: Do you read something and find you haven't been thinking about it and must read it again? (week 8): 1.4 ± 0.8
- CFQ score: Do you say something and realize afterwards that it might be taken as an insult? (week 8): 1.2 ± 0.7
- CFQ score: Do you start doing one thing at home and get distracted and do something else (unintentionally)? (week 8): 1.9 ± 0.7
- Distractibility summed sub-score of CFQ (week 8): 9 ± 4
- False triggering summed sub-score of CFQ (week 8): 7 ± 4^
- Forgetfulness summed sub-score of CFQ (week 8): 12 ± 5^
- Total CFQ summed sub-score (week 8): 27 ± 11
